Test results published in the NIST ThermoML archive (doi:10.1016/j.fluid.2016.04.009).
Numbers after ± are expanded uncertainties.

What was measured:
[1] = molar heat capacity at constant pressure; conditions: 298.15 K; 101.33 kPa; Liquid; Drop calorimetry
[2] = refractive index (Na D-line) (dimensionless); conditions: 101.33 kPa, Liquid, Standard Abbe refractometry
[3] = for viscosity / mass density: 101.33 kPa; for viscosity / mass density / surface tension liquid-gas: Liquid; for viscosity: Concentric cylinders viscometry; for mass density: Vibrating tube method; for surface tension liquid-gas: Pendant drop shape

For CCCC[n+]1ccn(C)c1.O=S(=O)([N-]S(=O)(=O)C(F)(F)F)C(F)(F)F, the “molar heat capacity at constant pressure” value [1] was 565.73 ± 13 J/K/mol, the refractive index ([2]; 288.15 K) was 1.43015 ± 0.001 and the refractive index ([2]; 293.15 K) was 1.4286 ± 0.001. For the same compound, the refractive index ([2]; 298.15 K) was 1.42705 ± 0.001, the refractive index ([2]; 303.15 K) was 1.4255 ± 0.001 and the refractive index ([2]; 308.15 K) was 1.42396 ± 0.001. The refractive index ([2]; 313.15 K) was 1.42241 ± 0.001 and the refractive index ([2]; 318.15 K) was 1.42086 ± 0.001.

With CCCC[n+]1cccc(C)c1.O=S(=O)([N-]S(=O)(=O)C(F)(F)F)C(F)(F)F the “molar heat capacity at constant pressure” value [1] was 578.01 ± 13 J/K/mol, the viscosity ([3]; 293.15 K) was 84.2 ± 1 mPa·s and the mass density ([3]; 293.15 K) was 1418.7 ± 0.7 kg/m3. For the same compound, the viscosity ([3]; 298.15 K) was 65.74 ± 0.76 mPa·s, the mass density ([3]; 298.15 K) was 1414.1 ± 0.7 kg/m3 and the viscosity ([3]; 303.15 K) was 52.39 ± 0.55 mPa·s. The mass density ([3]; 303.15 K) was 1409.4 ± 0.7 kg/m3, the viscosity ([3]; 308.15 K) was 42.46 ± 0.44 mPa·s and the mass density ([3]; 308.15 K) was 1404.8 ± 0.7 kg/m3. The viscosity ([3]; 313.15 K) was 34.93 ± 0.34 mPa·s, the mass density ([3]; 313.15 K) was 1400.2 ± 0.7 kg/m3 and the viscosity ([3]; 318.15 K) was 29.13 ± 0.28 mPa·s. For the same compound, the mass density ([3]; 318.15 K) was 1395.6 ± 0.7 kg/m3, the viscosity ([3]; 323.15 K) was 24.59 ± 0.23 mPa·s and the mass density ([3]; 323.15 K) was 1391.1 ± 0.7 kg/m3. It also gave a viscosity ([3]; 328.15 K) of 20.97 ± 0.19 mPa·s, a mass density ([3]; 328.15 K) of 1386.6 ± 0.7 kg/m3 and a viscosity ([3]; 333.15 K) of 18.1 ± 0.16 mPa·s. For the same compound, the mass density ([3]; 333.15 K) was 1382 ± 0.7 kg/m3, the viscosity ([3]; 338.15 K) was 15.71 ± 0.13 mPa·s and the mass density ([3]; 338.15 K) was 1377.6 ± 0.7 kg/m3. It also gave a viscosity ([3]; 343.15 K) of 13.77 ± 0.11 mPa·s, a mass density ([3]; 343.15 K) of 1373.1 ± 0.6 kg/m3 and a viscosity ([3]; 348.15 K) of 12.15 ± 0.1 mPa·s. The mass density ([3]; 348.15 K) was 1368.7 ± 0.6 kg/m3, the viscosity ([3]; 353.15 K) was 10.82 ± 0.09 mPa·s and the mass density ([3]; 353.15 K) was 1364.3 ± 0.6 kg/m3. The viscosity ([3]; 358.15 K) was 9.66 ± 0.08 mPa·s, the mass density ([3]; 358.15 K) was 1359.9 ± 0.6 kg/m3 and the viscosity ([3]; 363.15 K) was 8.69 ± 0.07 mPa·s. For the same compound, the mass density ([3]; 363.15 K) was 1355.6 ± 0.6 kg/m3, the refractive index ([2]; 288.15 K) was 1.44894 ± 0.00037 and the refractive index ([2]; 293.15 K) was 1.44737 ± 0.00037. It also gave a refractive index ([2]; 298.15 K) of 1.4458 ± 0.00037, a refractive index ([2]; 303.15 K) of 1.44423 ± 0.00037 and a refractive index ([2]; 308.15 K) of 1.44266 ± 0.00037. The refractive index ([2]; 313.15 K) was 1.44109 ± 0.00037 and the refractive index ([2]; 318.15 K) was 1.43952 ± 0.00037.

For CCCCCC[n+]1ccn(C)c1.O=S(=O)([N-]S(=O)(=O)C(F)(F)F)C(F)(F)F, the Normal melting temperature ([3]; Crystal, DTA) was -10.5 ± 1.1 °C.

With CCCC[N+]1(C)CCCCC1.O=S(=O)([N-]S(=O)(=O)C(F)(F)F)C(F)(F)F the “molar heat capacity at constant pressure” value [1] was 607.52 ± 14 J/K/mol, the viscosity ([3]; 293.15 K) was 261.28 ± 6.6 mPa·s and the mass density ([3]; 293.15 K) was 1386.9 ± 0.7 kg/m3. For the same compound, the viscosity ([3]; 298.15 K) was 189.11 ± 4.3 mPa·s, the mass density ([3]; 298.15 K) was 1382.5 ± 0.7 kg/m3 and the surface tension liquid-gas ([3]; 298.2 K) was 34.14 ± 0.7 mN/m. For the same compound, the viscosity ([3]; 303.15 K) was 141.44 ± 2.7 mPa·s, the mass density ([3]; 303.15 K) was 1378.1 ± 0.7 kg/m3 and the viscosity ([3]; 308.15 K) was 108.27 ± 1.7 mPa·s. The mass density ([3]; 308.15 K) was 1373.8 ± 0.6 kg/m3, the surface tension liquid-gas ([3]; 308.2 K) was 33.65 ± 0.7 mN/m and the viscosity ([3]; 313.15 K) was 84.87 ± 1.1 mPa·s. It also gave a mass density ([3]; 313.15 K) of 1369.5 ± 0.6 kg/m3, a viscosity ([3]; 318.15 K) of 67.24 ± 0.75 mPa·s and a mass density ([3]; 318.15 K) of 1365.2 ± 0.6 kg/m3. The surface tension liquid-gas ([3]; 318.2 K) was 33.17 ± 0.69 mN/m, the viscosity ([3]; 323.15 K) was 54.34 ± 0.55 mPa·s and the mass density ([3]; 323.15 K) was 1361 ± 0.6 kg/m3. For the same compound, the viscosity ([3]; 328.15 K) was 44.55 ± 0.44 mPa·s, the mass density ([3]; 328.15 K) was 1356.7 ± 0.6 kg/m3 and the surface tension liquid-gas ([3]; 328.2 K) was 32.68 ± 0.69 mN/m. It also gave a viscosity ([3]; 333.15 K) of 37.09 ± 0.35 mPa·s, a mass density ([3]; 333.15 K) of 1352.5 ± 0.6 kg/m3 and a viscosity ([3]; 338.15 K) of 31.09 ± 0.29 mPa·s. The mass density ([3]; 338.15 K) was 1348.3 ± 0.6 kg/m3, the surface tension liquid-gas ([3]; 338.2 K) was 32.2 ± 0.69 mN/m and the viscosity ([3]; 343.15 K) was 26.41 ± 0.24 mPa·s. The mass density ([3]; 343.15 K) was 1344.1 ± 0.6 kg/m3, the surface tension liquid-gas ([3]; 343.2 K) was 31.96 ± 0.69 mN/m and the viscosity ([3]; 348.15 K) was 22.65 ± 0.2 mPa·s. It also gave a mass density ([3]; 348.15 K) of 1340 ± 0.6 kg/m3, a viscosity ([3]; 353.15 K) of 19.65 ± 0.17 mPa·s and a mass density ([3]; 353.15 K) of 1335.9 ± 0.6 kg/m3. It also gave a viscosity ([3]; 358.15 K) of 17.09 ± 0.14 mPa·s, a mass density ([3]; 358.15 K) of 1331.8 ± 0.6 kg/m3 and a viscosity ([3]; 363.15 K) of 15.01 ± 0.13 mPa·s. The mass density ([3]; 363.15 K) was 1327.7 ± 0.6 kg/m3, the refractive index ([2]; 288.15 K) was 1.43251 ± 0.00037 and the refractive index ([2]; 293.15 K) was 1.43105 ± 0.00037. It also gave a refractive index ([2]; 298.15 K) of 1.42959 ± 0.00037, a refractive index ([2]; 303.15 K) of 1.42813 ± 0.00037 and a refractive index ([2]; 308.15 K) of 1.42667 ± 0.00037. The refractive index ([2]; 313.15 K) was 1.42521 ± 0.00037 and the refractive index ([2]; 318.15 K) was 1.42375 ± 0.00037.

With CC(C)Cn1cc[n+](C)c1.O=S(=O)([N-]S(=O)(=O)C(F)(F)F)C(F)(F)F the “molar heat capacity at constant pressure” value [1] was 565.31 ± 13 J/K/mol, the viscosity ([3]; 293.15 K) was 107.35 ± 1.9 mPa·s and the mass density ([3]; 293.15 K) was 1442.1 ± 1.9 kg/m3. It also gave a viscosity ([3]; 298.15 K) of 81.44 ± 1.3 mPa·s, a mass density ([3]; 298.15 K) of 1437.2 ± 1.9 kg/m3 and a surface tension liquid-gas ([3]; 298.2 K) of 32.72 ± 0.75 mN/m. It also gave a viscosity ([3]; 303.15 K) of 63.36 ± 0.92 mPa·s, a mass density ([3]; 303.15 K) of 1432.4 ± 1.9 kg/m3 and a viscosity ([3]; 308.15 K) of 50.3 ± 0.69 mPa·s. For the same compound, the mass density ([3]; 308.15 K) was 1427.7 ± 1.8 kg/m3, the surface tension liquid-gas ([3]; 308.2 K) was 32.26 ± 0.74 mN/m and the viscosity ([3]; 313.15 K) was 40.69 ± 0.55 mPa·s. The mass density ([3]; 313.15 K) was 1422.9 ± 1.8 kg/m3, the viscosity ([3]; 318.15 K) was 33.4 ± 0.44 mPa·s and the mass density ([3]; 318.15 K) was 1418.2 ± 1.8 kg/m3. It also gave a surface tension liquid-gas ([3]; 318.2 K) of 31.81 ± 0.74 mN/m, a viscosity ([3]; 323.15 K) of 27.81 ± 0.36 mPa·s and a mass density ([3]; 323.15 K) of 1413.5 ± 1.8 kg/m3. The viscosity ([3]; 328.15 K) was 23.46 ± 0.3 mPa·s, the mass density ([3]; 328.15 K) was 1408.8 ± 1.8 kg/m3 and the surface tension liquid-gas ([3]; 328.2 K) was 31.35 ± 0.74 mN/m. For the same compound, the viscosity ([3]; 333.15 K) was 20.05 ± 0.25 mPa·s, the mass density ([3]; 333.15 K) was 1404.2 ± 1.8 kg/m3 and the viscosity ([3]; 338.15 K) was 17.24 ± 0.21 mPa·s. The mass density ([3]; 338.15 K) was 1399.5 ± 1.8 kg/m3, the surface tension liquid-gas ([3]; 338.2 K) was 30.9 ± 0.73 mN/m and the viscosity ([3]; 343.15 K) was 14.99 ± 0.18 mPa·s. The mass density ([3]; 343.15 K) was 1394.9 ± 1.8 kg/m3, the surface tension liquid-gas ([3]; 343.2 K) was 30.67 ± 0.73 mN/m and the viscosity ([3]; 348.15 K) was 13.14 ± 0.16 mPa·s. It also gave a mass density ([3]; 348.15 K) of 1390.3 ± 1.7 kg/m3, a viscosity ([3]; 353.15 K) of 11.63 ± 0.14 mPa·s and a mass density ([3]; 353.15 K) of 1385.7 ± 1.7 kg/m3. The viscosity ([3]; 358.15 K) was 10.31 ± 0.12 mPa·s, the mass density ([3]; 358.15 K) was 1381.1 ± 1.7 kg/m3 and the viscosity ([3]; 363.15 K) was 9.22 ± 0.11 mPa·s. It also gave a mass density ([3]; 363.15 K) of 1376.6 ± 1.7 kg/m3, a refractive index ([2]; 288.15 K) of 1.4301 ± 0.00051 and a refractive index ([2]; 293.15 K) of 1.42854 ± 0.00051. The refractive index ([2]; 298.15 K) was 1.42699 ± 0.00051, the refractive index ([2]; 303.15 K) was 1.42543 ± 0.00051 and the refractive index ([2]; 308.15 K) was 1.42387 ± 0.00051. The refractive index ([2]; 313.15 K) was 1.42232 ± 0.00051 and the refractive index ([2]; 318.15 K) was 1.42076 ± 0.00051.
